Source: ChEMBL document CHEMBL1201862, “PubChem BioAssay data set” (2004)
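Exposure lasted 48 hours, with cells grown in 96-well plates and compounds tested at five concentrations. GI50 = concentration required for 50% inhibition of growth.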 Active and inactive are the calls of the source. Cut-off read from the data, not from the text of the source: active = GI50 up to about 1.1 µM and inactive = higher.

Assays:
Assay in all cases: NCI-60 cell line screen, 48 h
UACC-257 = tested on: UACC-257
A498 = tested on: A498
EKVX = tested on: EKVX
OVCAR-4 = tested on: OVCAR-4
OVCAR-5 = tested on: OVCAR-5
SF-268 = tested on: SF-268
SNB-19 = tested on: SNB-19
KM12 = tested on: KM12
CAKI-1 = tested on: CAKI-1
MCF7 = tested on: MCF7
SK-MEL-28 = tested on: SK-MEL-28
COLO 205 = tested on: COLO 205
HCC 2998 = tested on: HCC 2998
RPMI-8226 = tested on: RPMI-8226
SK-MEL-5 = tested on: SK-MEL-5
PC-3 = tested on: PC-3
SF-295 = tested on: SF-295
MOLT-4 = tested on: MOLT-4
SR = tested on: SR
K562 = tested on: K562

Structure (SMILES) | GI50 (UACC-257) | GI50 (A498) | GI50 (EKVX) | GI50 (OVCAR-4) | GI50 (OVCAR-5) | GI50 (SF-268) | GI50 (SNB-19) | GI50 (KM12) | GI50 (CAKI-1) | GI50 (MCF7) | GI50 (SK-MEL-28) | GI50 (COLO 205) | GI50 (HCC 2998) | GI50 (RPMI-8226) | GI50 (SK-MEL-5) | GI50 (PC-3) | GI50 (SF-295) | GI50 (MOLT-4) | GI50 (SR) | GI50 (K562)
COc1ccc(/C=N\NC(=O)Nc2cccc3ccccc23)cc1 | 34.9 µM (inactive) | 18.2 µM (inactive) | 26.9 µM (inactive) | 15.6 µM (inactive) | > 100 µM (inactive) | 17.7 µM (inactive) | 17.1 µM (inactive) | 11.7 µM (inactive) | 13.7 µM (inactive) | 4.44 µM (inactive) | > 100 µM (inactive) | > 100 µM (inactive) | 47.5 µM (inactive) | > 100 µM (inactive) | 28.2 µM (inactive) | 20.8 µM (inactive) | – | – | – | –
CC(=O)Nc1ccc(C2=N/C(=C\c3ccc(Cl)cc3)C(=O)O2)cc1 | 45.7 µM (inactive) | > 100 µM (inactive) | > 100 µM (inactive) | 65 µM (inactive) | > 100 µM (inactive) | 34.3 µM (inactive) | 63.7 µM (inactive) | 33.1 µM (inactive) | > 100 µM (inactive) | – | > 100 µM (inactive) | 39.2 µM (inactive) | 20 µM (inactive) | 40.2 µM (inactive) | 77.8 µM (inactive) | – | > 100 µM (inactive) | 20.7 µM (inactive) | 18.7 µM (inactive) | 19.5 µM (inactive)
CC1(C)CC[C@]2(C)[C@@H](O)C[C@]3(C)C(=CC[C@@H]4[C@@]5(C)CC[C@H](O)C(C)(C)[C@@H]5CC[C@]43C)[C@@H]2C1 | 49.5 µM (inactive) | 34.3 µM (inactive) | 38.8 µM (inactive) | 97.3 µM (inactive) | 97.3 µM (inactive) | 46.3 µM (inactive) | 61.5 µM (inactive) | 41.4 µM (inactive) | 34.5 µM (inactive) | 37.9 µM (inactive) | > 100 µM (inactive) | 48.6 µM (inactive) | – | – | 35.3 µM (inactive) | 29 µM (inactive) | 29.4 µM (inactive) | > 100 µM (inactive) | – | > 100 µM (inactive)
C/C(=N\NC(=S)N1CCN(c2ccccn2)CC1)c1nccs1 | 0.214 µM (active) | 1.88 µM (inactive) | 0.12 µM (active) | 1.03 µM (active) | 0.867 µM (active) | 0.794 µM (active) | 1.58 µM (inactive) | 0.485 µM (active) | 2.42 µM (inactive) | 0.00665 µM (active) | 0.792 µM (active) | < 0.0248 µM (active) | 0.675 µM (active) | 0.01 µM (active) | 0.219 µM (active) | 0.0548 µM (active) | 0.822 µM (active) | < 0.0225 µM (active) | – | 0.01 µM (active)
NC(=S)N/N=C(\Cc1nc2ccc(Cl)cc2nc1O)C(=O)Nc1ccc(Cl)cc1 | > 100 µM (inactive) | – | 76 µM (inactive) | > 100 µM (inactive) | > 100 µM (inactive) | > 100 µM (inactive) | > 100 µM (inactive) | > 100 µM (inactive) | > 100 µM (inactive) | > 100 µM (inactive) | > 100 µM (inactive) | > 100 µM (inactive) | > 100 µM (inactive) | – | > 100 µM (inactive) | > 100 µM (inactive) | > 100 µM (inactive) | > 100 µM (inactive) | – | –
Cc1cc2[nH]c3c(C#N)c(-c4ccccc4)c(/N=N/c4cccc(C(F)(F)F)c4)c(=O)n3c2cc1C | 26.8 µM (inactive) | 88.5 µM (inactive) | 23.4 µM (inactive) | 39.5 µM (inactive) | > 100 µM (inactive) | 32.6 µM (inactive) | 35.2 µM (inactive) | 31.6 µM (inactive) | 32 µM (inactive) | 50.4 µM (inactive) | 39 µM (inactive) | 42.2 µM (inactive) | 59.2 µM (inactive) | 5.35 µM (inactive) | 15.7 µM (inactive) | 32.2 µM (inactive) | 42.6 µM (inactive) | – | – | 0.0382 µM (active)
Cc1ccc(Nc2nc(=O)c3c4ccccc4n(C(=O)OC(C)(C)C)c3s2)cc1 | 51.1 µM (inactive) | 39.1 µM (inactive) | 29.1 µM (inactive) | 37.9 µM (inactive) | 19.7 µM (inactive) | 20.6 µM (inactive) | 79.1 µM (inactive) | 16.7 µM (inactive) | 18.2 µM (inactive) | – | 44.9 µM (inactive) | 35.4 µM (inactive) | – | 17.8 µM (inactive) | 13.2 µM (inactive) | 29 µM (inactive) | 23 µM (inactive) | 53 µM (inactive) | 12.8 µM (inactive) | 27.4 µM (inactive)
C[C@H](CCC1=NCCN1)[C@H]1CC[C@H]2[C@@H]3CC[C@@H]4C[C@H](O)CC[C@]4(C)[C@H]3C[C@H](O)[C@]12C | 15.4 µM (inactive) | 20.8 µM (inactive) | 18.5 µM (inactive) | 15.9 µM (inactive) | 14.5 µM (inactive) | 7.36 µM (inactive) | 8.71 µM (inactive) | 11.8 µM (inactive) | 20.4 µM (inactive) | 12.7 µM (inactive) | 18.6 µM (inactive) | 10.2 µM (inactive) | 13.5 µM (inactive) | 11.3 µM (inactive) | 11.8 µM (inactive) | 4.57 µM (inactive) | 15.6 µM (inactive) | 3.13 µM (inactive) | – | 5.38 µM (inactive)
O=C1C(=O)N(C2CCCCC2)C(=S)N1C1CCCCC1 | > 100 µM (inactive) | > 100 µM (inactive) | > 100 µM (inactive) | > 100 µM (inactive) | > 100 µM (inactive) | > 100 µM (inactive) | > 100 µM (inactive) | > 100 µM (inactive) | > 100 µM (inactive) | – | > 100 µM (inactive) | > 100 µM (inactive) | > 100 µM (inactive) | > 100 µM (inactive) | > 100 µM (inactive) | > 100 µM (inactive) | > 100 µM (inactive) | > 100 µM (inactive) | > 100 µM (inactive) | > 100 µM (inactive)
CC1(C)CC(=O)C(CC2C(=O)c3ccccc3C2=O)C(=O)C1C(=O)C(=O)Nc1cccc2ccc(O)cc12 (stereo unspecified) | > 100 µM (inactive) | 20.8 µM (inactive) | 43.9 µM (inactive) | 88.7 µM (inactive) | > 100 µM (inactive) | > 100 µM (inactive) | > 100 µM (inactive) | > 100 µM (inactive) | 34.4 µM (inactive) | 32.2 µM (inactive) | > 100 µM (inactive) | > 100 µM (inactive) | > 100 µM (inactive) | 66.5 µM (inactive) | > 100 µM (inactive) | 51.4 µM (inactive) | 92.3 µM (inactive) | 53.5 µM (inactive) | – | 40.9 µM (inactive)
CCOP(=O)(OCC)C(C)(CC)NC (stereo unspecified) | > 100 µM (inactive) | > 100 µM (inactive) | > 100 µM (inactive) | > 100 µM (inactive) | > 100 µM (inactive) | > 100 µM (inactive) | > 100 µM (inactive) | > 100 µM (inactive) | > 100 µM (inactive) | > 100 µM (inactive) | > 100 µM (inactive) | > 100 µM (inactive) | > 100 µM (inactive) | – | > 100 µM (inactive) | – | > 100 µM (inactive) | > 100 µM (inactive) | – | > 100 µM (inactive)
